{"source": "ChEMBL document CHEMBL1201862", "about": "“PubChem BioAssay data set” (2004)", "key": {"[1]": {"molecular_target": "FAD-linked sulfhydryl oxidase ALR (Homo sapiens, UniProt P55789)", "sequence (P55789 whole entry)": "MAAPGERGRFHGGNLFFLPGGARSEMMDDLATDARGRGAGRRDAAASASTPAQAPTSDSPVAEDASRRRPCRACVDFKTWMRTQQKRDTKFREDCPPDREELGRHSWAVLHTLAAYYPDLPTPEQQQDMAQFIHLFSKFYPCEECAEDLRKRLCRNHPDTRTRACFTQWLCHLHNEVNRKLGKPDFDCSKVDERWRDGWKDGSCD", "assay": "ALR-catalysed DTT oxidation blockers – biochemical, H2O2 detection, luminescence, cherry-pick, dose response (AID 493248)"}, "Fatty acid synthase [2]": {"molecular_target": "T1, Fatty acid synthase (Homo sapiens, UniProt P49327)", "T1 sequence (P49327 whole entry)": "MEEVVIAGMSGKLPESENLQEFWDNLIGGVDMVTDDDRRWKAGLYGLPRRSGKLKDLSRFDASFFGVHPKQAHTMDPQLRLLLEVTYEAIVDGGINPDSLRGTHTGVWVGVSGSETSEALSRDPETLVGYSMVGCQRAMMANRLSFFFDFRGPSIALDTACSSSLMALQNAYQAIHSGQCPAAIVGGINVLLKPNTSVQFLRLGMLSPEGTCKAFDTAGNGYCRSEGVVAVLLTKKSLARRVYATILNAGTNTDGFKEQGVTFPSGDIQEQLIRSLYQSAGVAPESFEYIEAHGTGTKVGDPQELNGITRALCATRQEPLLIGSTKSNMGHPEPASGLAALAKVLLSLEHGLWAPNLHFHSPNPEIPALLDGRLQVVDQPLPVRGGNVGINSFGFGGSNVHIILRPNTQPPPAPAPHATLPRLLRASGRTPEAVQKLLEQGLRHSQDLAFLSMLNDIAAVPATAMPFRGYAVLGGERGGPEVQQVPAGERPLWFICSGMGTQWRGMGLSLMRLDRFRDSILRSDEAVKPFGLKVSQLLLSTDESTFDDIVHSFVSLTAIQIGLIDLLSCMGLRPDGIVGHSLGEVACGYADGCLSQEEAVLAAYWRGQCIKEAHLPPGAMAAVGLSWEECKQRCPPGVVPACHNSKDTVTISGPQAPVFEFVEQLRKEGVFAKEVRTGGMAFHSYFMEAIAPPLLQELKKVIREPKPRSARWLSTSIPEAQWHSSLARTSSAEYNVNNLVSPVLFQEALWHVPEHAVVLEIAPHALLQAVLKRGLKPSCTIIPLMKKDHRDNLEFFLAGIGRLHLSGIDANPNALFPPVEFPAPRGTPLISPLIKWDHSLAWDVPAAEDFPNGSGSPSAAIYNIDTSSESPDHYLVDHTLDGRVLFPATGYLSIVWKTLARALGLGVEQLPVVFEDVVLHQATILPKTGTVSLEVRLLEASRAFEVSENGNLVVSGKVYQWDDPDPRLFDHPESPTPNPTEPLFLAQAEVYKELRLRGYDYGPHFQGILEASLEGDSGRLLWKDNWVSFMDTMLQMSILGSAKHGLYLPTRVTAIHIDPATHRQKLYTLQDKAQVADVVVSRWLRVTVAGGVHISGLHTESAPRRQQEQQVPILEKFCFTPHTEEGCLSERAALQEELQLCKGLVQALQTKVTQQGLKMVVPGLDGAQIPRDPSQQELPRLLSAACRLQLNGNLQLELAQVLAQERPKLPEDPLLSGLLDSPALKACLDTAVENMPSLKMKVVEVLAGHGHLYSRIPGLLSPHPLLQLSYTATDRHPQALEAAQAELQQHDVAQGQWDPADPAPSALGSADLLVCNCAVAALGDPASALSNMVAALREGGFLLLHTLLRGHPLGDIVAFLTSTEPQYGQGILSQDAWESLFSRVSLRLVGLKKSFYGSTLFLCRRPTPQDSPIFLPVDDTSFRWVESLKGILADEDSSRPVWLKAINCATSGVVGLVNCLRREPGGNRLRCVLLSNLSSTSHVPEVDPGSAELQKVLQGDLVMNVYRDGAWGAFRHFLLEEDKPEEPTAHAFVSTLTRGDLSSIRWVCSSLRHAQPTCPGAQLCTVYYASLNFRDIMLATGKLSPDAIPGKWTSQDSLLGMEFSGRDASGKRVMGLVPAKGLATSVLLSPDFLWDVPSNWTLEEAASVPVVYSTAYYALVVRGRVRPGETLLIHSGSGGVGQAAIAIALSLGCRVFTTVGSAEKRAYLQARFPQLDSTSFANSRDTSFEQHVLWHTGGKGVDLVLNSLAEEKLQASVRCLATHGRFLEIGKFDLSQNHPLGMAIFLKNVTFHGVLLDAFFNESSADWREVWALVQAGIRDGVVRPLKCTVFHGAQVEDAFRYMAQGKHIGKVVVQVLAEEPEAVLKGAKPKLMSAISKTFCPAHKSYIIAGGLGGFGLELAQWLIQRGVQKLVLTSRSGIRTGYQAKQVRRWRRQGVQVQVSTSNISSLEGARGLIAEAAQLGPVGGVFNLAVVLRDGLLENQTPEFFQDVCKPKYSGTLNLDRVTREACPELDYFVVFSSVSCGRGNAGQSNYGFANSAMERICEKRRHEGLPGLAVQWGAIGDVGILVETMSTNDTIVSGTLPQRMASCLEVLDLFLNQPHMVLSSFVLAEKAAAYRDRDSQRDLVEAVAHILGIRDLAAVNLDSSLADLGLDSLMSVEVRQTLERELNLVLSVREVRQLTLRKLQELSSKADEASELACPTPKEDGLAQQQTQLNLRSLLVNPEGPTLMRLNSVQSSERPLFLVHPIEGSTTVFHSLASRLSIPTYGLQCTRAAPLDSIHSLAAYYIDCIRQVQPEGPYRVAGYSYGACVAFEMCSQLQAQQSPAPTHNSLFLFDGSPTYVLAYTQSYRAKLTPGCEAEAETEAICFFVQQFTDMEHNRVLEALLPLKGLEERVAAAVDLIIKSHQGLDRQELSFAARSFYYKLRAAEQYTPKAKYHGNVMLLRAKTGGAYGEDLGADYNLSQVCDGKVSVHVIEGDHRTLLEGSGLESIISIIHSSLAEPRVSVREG", "assay": "inhibition of human FAS-TE enzyme activity – biochemical, endpoint fluorescence intensity, uHTS hits, dose response (AID 624327);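 also: fluorescence from hydrolysis of an O-methyl fluorescein acyl ester substrate by the enzyme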", "assay_type": "functional"}, "Fatty acid synthase [3]": {"molecular_target": "T1, Fatty acid synthase", "assay": "inhibition of human FAS-TE enzyme activity – biochemical, kinetic fluorescence intensity, dose response (AID 624326);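 also: rate of fluorescence rise from hydrolysis of a fluorogenic O-methyl fluorescein ester substrate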", "assay_type": "functional"}, "Cytochrome P450 2C9": {"molecular_target": "Cytochrome P450 2C9 (Homo sapiens, UniProt P11712)", "sequence (P11712 whole entry)": "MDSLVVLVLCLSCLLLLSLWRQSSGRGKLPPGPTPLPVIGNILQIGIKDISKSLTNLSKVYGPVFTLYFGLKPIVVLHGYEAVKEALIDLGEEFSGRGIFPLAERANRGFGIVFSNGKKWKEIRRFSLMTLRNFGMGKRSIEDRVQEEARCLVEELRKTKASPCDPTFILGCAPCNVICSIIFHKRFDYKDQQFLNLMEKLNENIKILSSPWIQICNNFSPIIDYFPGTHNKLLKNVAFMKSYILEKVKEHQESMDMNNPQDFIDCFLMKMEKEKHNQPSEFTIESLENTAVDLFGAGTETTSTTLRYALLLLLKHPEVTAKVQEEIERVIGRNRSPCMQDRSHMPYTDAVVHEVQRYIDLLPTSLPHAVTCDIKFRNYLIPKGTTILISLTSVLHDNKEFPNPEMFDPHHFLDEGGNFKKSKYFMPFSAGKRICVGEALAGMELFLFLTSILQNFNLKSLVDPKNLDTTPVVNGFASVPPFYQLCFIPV"}, "[4]": {"assay": "NIH-3T3 fibroblast cytotoxicity, dose response, cytotoxicity control, cell-based, fluorescence, Alamar Blue, secondary assay (AID 2327);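 also: NIH-3T3 mouse fibroblasts cultured with fluconazole at 8 µg/mL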", "assay_type": "functional"}, "[5]": {"assay": "fluconazole-exposed Candida albicans growth modulators – fluorescence, retest, confirmation (AID 2467)", "assay_type": "functional, cell-based"}, "[6]": {"assay": "Luminescence Cell-Based Dose Confirmation HTS to Identify Activators of 5'UTR Stem-Loop Driven Alpha-Synuclein mRNA Translation in H4 Neuroglioblastoma Cells. [Related pubchem assays: 1829 (Project Summary), 1814 (Primary HTS)]", "assay_type": "functional"}, "[7]": {"assay": "Luminescence Cell-Based Dose Response HTS to Identify Activators of Luciferase Translation or Activity in H4 […] Cells. [Related pubchem assays: 1829 (Project Summary), 1814 (Primary HTS)]", "assay_type": "functional"}, "cells [8]": {"assay": "cells", "assay_type": "functional, cell-based"}, "H4": {"tested_on": "H4", "assay": "Luminescence Cell-Based Dose Response HTS to Identify Activators of 5'UTR Stem-Loop Driven Prion Protein mRNA Translation in H4 Neuroglioblastoma Cells. [Related pubchem assays: 1829 (Project Summary), 1814 (Primary HTS)]", "assay_type": "functional", "settings": "Homo sapiens"}, "cells [9]": {"assay": "cells", "assay_type": "functional, cell-based", "remark": "listed apart in the source"}, "[10]": {"molecular_target": "T2, Calpain-2 catalytic subunit (Sus scrofa, UniProt P43367)", "T2 sequence (P43367 whole entry)": "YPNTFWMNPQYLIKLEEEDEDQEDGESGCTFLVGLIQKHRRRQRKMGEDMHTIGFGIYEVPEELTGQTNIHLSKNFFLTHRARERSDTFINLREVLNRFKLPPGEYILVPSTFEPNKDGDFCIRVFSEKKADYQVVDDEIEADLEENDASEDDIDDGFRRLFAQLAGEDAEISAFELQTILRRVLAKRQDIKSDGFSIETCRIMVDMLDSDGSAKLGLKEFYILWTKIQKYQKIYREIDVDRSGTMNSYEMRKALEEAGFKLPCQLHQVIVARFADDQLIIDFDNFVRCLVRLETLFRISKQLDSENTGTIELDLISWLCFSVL", "assay": "m-calpain protease blockers, concentration series – biochemical, fluorogenic peptide substrate, dose response (AID 1420)", "assay_type": "functional"}, "Genome polyprotein": {"molecular_target": "Genome polyprotein (dengue virus type 2, UniProt P29990)", "sequence (P29990 2492-3391 limits assumed)": "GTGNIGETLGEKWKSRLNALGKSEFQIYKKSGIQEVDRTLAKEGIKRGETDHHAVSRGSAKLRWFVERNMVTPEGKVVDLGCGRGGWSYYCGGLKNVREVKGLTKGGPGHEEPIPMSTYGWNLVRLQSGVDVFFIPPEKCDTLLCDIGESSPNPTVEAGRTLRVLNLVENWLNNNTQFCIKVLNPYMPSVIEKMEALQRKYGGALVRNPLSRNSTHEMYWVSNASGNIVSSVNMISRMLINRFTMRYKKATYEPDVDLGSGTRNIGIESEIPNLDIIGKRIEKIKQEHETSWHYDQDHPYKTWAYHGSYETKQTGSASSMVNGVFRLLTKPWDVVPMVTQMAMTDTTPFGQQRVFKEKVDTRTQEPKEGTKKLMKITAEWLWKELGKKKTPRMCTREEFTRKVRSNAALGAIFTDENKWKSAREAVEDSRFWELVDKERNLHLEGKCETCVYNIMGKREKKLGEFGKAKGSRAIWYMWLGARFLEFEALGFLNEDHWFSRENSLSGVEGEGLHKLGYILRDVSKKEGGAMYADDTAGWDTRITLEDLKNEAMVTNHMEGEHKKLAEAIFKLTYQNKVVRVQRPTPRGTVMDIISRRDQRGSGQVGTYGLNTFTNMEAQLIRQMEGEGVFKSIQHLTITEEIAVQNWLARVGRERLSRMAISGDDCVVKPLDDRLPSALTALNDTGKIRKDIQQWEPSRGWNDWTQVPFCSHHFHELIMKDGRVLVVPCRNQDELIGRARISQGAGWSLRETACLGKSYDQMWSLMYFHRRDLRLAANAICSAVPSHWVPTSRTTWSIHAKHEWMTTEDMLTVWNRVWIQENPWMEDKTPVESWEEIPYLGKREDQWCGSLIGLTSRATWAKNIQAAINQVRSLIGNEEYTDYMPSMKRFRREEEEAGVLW", "assay": "flavivirus cap methylation enzyme inhibition – biochemical, confirmation dose response, primary screen (AID 588689)", "assay_type": "functional"}, "Cytochrome P450 2C19": {"molecular_target": "Cytochrome P450 2C19 (Homo sapiens, UniProt P33261)", "sequence (P33261 whole entry)": "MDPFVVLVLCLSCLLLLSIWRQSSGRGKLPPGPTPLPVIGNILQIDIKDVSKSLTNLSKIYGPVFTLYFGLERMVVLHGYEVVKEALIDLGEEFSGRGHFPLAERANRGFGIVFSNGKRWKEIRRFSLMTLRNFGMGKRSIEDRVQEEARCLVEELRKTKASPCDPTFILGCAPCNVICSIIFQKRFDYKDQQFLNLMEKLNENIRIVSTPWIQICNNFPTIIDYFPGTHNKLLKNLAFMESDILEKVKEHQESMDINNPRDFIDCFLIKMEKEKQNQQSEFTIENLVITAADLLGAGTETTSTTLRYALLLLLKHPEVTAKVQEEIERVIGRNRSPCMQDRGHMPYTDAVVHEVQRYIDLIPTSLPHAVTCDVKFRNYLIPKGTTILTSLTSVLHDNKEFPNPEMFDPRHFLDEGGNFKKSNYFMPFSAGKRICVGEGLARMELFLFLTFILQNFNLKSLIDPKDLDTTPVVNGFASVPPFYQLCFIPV", "assay": "Cytochrome panel assay with activity outcomes. Panel member name: p450-cyp2c19 Compounds with AC50 equal or less than 10 uM are considered active", "assay_type": "functional", "settings": "read-out: AC50"}, "Cytochrome P450 1A2": {"molecular_target": "T3, Cytochrome P450 1A2 (Homo sapiens, UniProt P05177)", "T3 sequence (P05177 whole entry)": "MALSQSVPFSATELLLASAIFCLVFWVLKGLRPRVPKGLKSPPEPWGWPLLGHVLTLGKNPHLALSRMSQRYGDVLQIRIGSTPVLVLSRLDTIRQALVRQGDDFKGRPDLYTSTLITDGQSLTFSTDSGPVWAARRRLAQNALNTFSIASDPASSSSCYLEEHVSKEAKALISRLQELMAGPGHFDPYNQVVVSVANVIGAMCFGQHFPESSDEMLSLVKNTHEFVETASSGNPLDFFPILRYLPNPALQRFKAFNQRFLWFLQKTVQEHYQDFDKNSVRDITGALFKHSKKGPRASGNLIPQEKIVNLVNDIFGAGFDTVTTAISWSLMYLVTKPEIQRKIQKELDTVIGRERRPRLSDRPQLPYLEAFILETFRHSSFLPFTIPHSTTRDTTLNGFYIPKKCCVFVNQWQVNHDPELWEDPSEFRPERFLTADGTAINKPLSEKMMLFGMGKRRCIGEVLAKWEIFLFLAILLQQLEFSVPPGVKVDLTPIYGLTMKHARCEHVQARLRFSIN"}, "[11]": {"assay": "Trypanosoma cruzi growth suppression in host cells – NIH3T3 host cells, beta-gal luminescence, confirmation (AID 2044);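 also: intracellular parasites grown in NIH/3T3 mouse fibroblasts as host cells; luminescent beta-galactosidase reporter signal from transgenic T. cruzi replicating inside host cells; inhibitors lower the luminescence signal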", "assay_type": "functional, cell-based"}, "[12]": {"assay": "NIH3T3 cell viability loss – ATP luminescence, mouse fibroblasts, counter-screen, dose response (AID 2010);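 also: cells exposed to compound for about 90 hours before reading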", "assay_type": "functional, cell-based"}, "Large T antigen": {"molecular_target": "Large T antigen (Simian virus 40, UniProt P03070)", "assay_type": "functional, Betapolyomavirus macacae"}, "Cytochrome P450 3A4": {"molecular_target": "Cytochrome P450 3A4 (Homo sapiens, UniProt P08684)", "sequence (P08684 whole entry)": "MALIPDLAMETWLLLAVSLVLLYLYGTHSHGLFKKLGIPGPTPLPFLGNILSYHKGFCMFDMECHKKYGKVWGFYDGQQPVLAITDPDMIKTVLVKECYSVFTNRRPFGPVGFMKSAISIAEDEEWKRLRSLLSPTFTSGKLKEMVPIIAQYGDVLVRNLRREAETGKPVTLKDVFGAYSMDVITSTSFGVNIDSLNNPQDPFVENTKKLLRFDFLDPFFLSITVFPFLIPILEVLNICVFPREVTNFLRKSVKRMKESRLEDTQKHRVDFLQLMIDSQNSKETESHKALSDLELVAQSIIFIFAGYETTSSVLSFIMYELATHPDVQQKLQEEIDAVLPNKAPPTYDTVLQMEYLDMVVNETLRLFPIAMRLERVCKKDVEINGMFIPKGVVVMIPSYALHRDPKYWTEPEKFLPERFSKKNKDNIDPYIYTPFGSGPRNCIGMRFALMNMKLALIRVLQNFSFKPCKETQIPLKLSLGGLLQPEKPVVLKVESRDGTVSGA"}, "[13]": {"assay": "viability of uninfected HEp-2 cells – cell-based, HTS, cytotoxicity control for RSV inhibitor project, dose response (AID 2410)", "assay_type": "functional", "settings": "human respiratory syncytial virus"}, "[14]": {"molecular_target": "T4, Rac GTPase-activating protein 1 (Homo sapiens, UniProt Q9H0H5)", "T4 sequence (Q9H0H5 whole entry)": "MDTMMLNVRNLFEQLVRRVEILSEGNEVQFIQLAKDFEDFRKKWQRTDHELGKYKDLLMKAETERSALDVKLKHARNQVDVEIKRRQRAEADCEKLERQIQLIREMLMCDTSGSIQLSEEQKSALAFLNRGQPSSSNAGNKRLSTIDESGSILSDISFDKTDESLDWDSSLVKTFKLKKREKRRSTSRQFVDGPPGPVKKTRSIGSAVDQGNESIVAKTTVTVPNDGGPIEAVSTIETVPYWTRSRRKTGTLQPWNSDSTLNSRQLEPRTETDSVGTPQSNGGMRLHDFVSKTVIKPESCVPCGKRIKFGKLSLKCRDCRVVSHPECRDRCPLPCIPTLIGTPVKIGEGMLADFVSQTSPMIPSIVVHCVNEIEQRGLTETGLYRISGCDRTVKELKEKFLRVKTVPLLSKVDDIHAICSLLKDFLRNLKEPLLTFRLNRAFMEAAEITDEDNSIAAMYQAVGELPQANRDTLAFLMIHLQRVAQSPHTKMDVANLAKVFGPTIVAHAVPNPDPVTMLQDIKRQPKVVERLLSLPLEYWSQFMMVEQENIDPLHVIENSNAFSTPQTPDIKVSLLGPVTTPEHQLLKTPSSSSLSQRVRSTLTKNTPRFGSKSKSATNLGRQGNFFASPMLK", "assay": "blockers of MgcRacGAP-driven Rac1 GTP hydrolysis – biochemical, ADP Hunter fluorescence, primary and confirmatory, confirmation (AID 624330)", "assay_type": "functional"}}, "note": "Active and inactive are the calls of the source."}
{"smiles": "COc1cccc(-c2nnc(S)n2Cc2ccco2)c1OC", "values": [{"measurement": "AC50", "setting": "[1]", "value": "3.65 µM (active)"}]}
{"smiles": "COc1ccc([N+](=O)[O-])cc1NC(=O)CCCOc1ccccc1", "values": [{"measurement": "IC50", "setting": "Fatty acid synthase [2]", "value": "7.3 µM (active)"}, {"measurement": "IC50", "setting": "Fatty acid synthase [3]", "value": "8.62 µM (active)"}]}
{"smiles": "COc1ccccc1CNC(=O)CCN1C(=O)COc2ccc(C)cc21", "values": [{"measurement": "AC50", "setting": "Cytochrome P450 2C9", "value": "inconclusive"}]}
{"smiles": "COCCN(C(=O)CSc1nnc(-c2cccc(C)c2)n1C)c1c(N)n(Cc2ccccc2)c(=O)[nH]c1=O", "values": [{"measurement": "EC50", "setting": "[4]", "value": "> 160 µM (inactive)"}, {"measurement": "EC50", "setting": "[5]", "value": "> 38 µM (not active)"}]}
{"smiles": "Cc1ccc(C(=O)N/C(=C\\c2cccc([N+](=O)[O-])c2)C(=O)Nc2cccc(C(=O)O)c2)cc1", "values": [{"measurement": "IC50", "setting": "Fatty acid synthase [2]", "value": "15.1 µM (active)"}, {"measurement": "IC50", "setting": "Fatty acid synthase [3]", "value": "8.2 µM (active)"}]}
{"smiles": "CCCCNC(=O)c1cc(-c2ccc(F)cc2)on1", "values": [{"measurement": "EC50", "setting": "[6]", "value": "11.9 µM (active)"}, {"measurement": "EC50", "setting": "[7]", "value": "24.3 µM (active)"}, {"measurement": "EC50", "setting": "cells [8]", "value": "8.85 µM (active)"}, {"measurement": "EC50", "setting": "H4", "value": "13.1 µM (active)"}, {"measurement": "EC50", "setting": "cells [9]", "value": "45 µM (active)"}]}
{"smiles": "COc1cccc(-n2c(SCC(=O)OC(C)C)nnc2-c2cccnc2)c1", "values": [{"measurement": "IC50", "setting": "[10]", "value": "> 50 µM (not active)"}]}
{"smiles": "C=C(C)CC1Nc2ccccc2NC1CC(=C)C", "note": "(stereo not given)", "values": [{"measurement": "AC50", "setting": "[1]", "value": "5.56 µM (active)"}]}
{"smiles": "O=[N+]([O-])c1ccc(NCc2ccccc2)nc1", "values": [{"measurement": "IC50", "setting": "[10]", "value": "34.1 µM (not active)"}]}
{"smiles": "CCC(C(=O)O)N1C(=O)/C(=C/C(C)=C/c2ccccc2)SC1=S", "note": "(stereo not given)", "values": [{"measurement": "IC50", "setting": "Genome polyprotein", "value": "37.8 µM (active)"}]}
{"smiles": "Cc1ccc(C(=O)Nc2ccc(N3CCOCC3)nc2)cc1", "values": [{"measurement": "AC50", "setting": "Cytochrome P450 2C19", "value": "2.82 µM (inconclusive)"}, {"measurement": "AC50", "setting": "Cytochrome P450 1A2", "value": "17.8 µM (inconclusive)"}, {"measurement": "AC50", "setting": "Cytochrome P450 2C9", "value": "inconclusive"}]}
{"smiles": "COC(=O)c1ccc(COc2cc([N+](=O)[O-])cc3cccnc23)o1", "values": [{"measurement": "IC50", "setting": "Fatty acid synthase [2]", "value": "13.3 µM (active)"}, {"measurement": "IC50", "setting": "Fatty acid synthase [3]", "value": "11.6 µM (active)"}]}
{"smiles": "S=C(NCc1ccc(Cl)cc1)NC1CCN(Cc2ccccc2)CC1", "values": [{"measurement": "EC50", "setting": "[11]", "value": "2.86 µM (active)"}, {"measurement": "IC50", "setting": "[10]", "value": "18.6 µM (not active)"}, {"measurement": "EC50", "setting": "[12]", "value": "> 30 µM (not active)"}]}
{"smiles": "CCN(Cc1ccccc1)C(=O)COC(=O)c1cc(Cl)nc(Cl)c1", "values": [{"measurement": "IC50", "setting": "Fatty acid synthase [2]", "value": "9.66 µM (active)"}, {"measurement": "IC50", "setting": "Fatty acid synthase [3]", "value": "9.26 µM (active)"}]}
{"smiles": "Oc1nc2cc(NCc3ccc(F)cc3)ccc2[nH]1", "values": [{"measurement": "IC50", "setting": "Large T antigen", "value": "13.2 µM (active)"}]}
{"smiles": "FC(F)(F)c1cccc(N2CCN(CC3CC4C=CC3C4)CC2)c1", "note": "(stereo not given)", "values": [{"measurement": "AC50", "setting": "Cytochrome P450 1A2", "value": "11.2 µM (inconclusive)"}, {"measurement": "AC50", "setting": "Cytochrome P450 3A4", "value": "39.8 µM (inconclusive)"}, {"measurement": "AC50", "setting": "Cytochrome P450 2C9", "value": "inconclusive"}]}
{"smiles": "COc1ccc(NC(=O)c2[nH]cnc2C(=O)N[C@H](C)c2ccccc2)cc1", "values": [{"measurement": "IC50", "setting": "Fatty acid synthase [2]", "value": "10.9 µM (active)"}, {"measurement": "IC50", "setting": "Fatty acid synthase [3]", "value": "11.5 µM (active)"}]}
{"smiles": "Cc1ccc(S(=O)(=O)Nc2ccccc2C=O)cc1", "values": [{"measurement": "AC50", "setting": "Cytochrome P450 2C9", "value": "inconclusive"}]}
{"smiles": "Cn1c(N)c(C(=O)COC(=O)c2ncc(Cl)c(Cl)c2Cl)c(=O)n(C)c1=O", "values": [{"measurement": "IC50", "setting": "[10]", "value": "9.79 µM (active)"}]}
{"smiles": "CC1=NOC(=O)/C1=C\\c1ccc(-c2ccc(Br)cc2C(=O)O)o1", "values": [{"measurement": "IC50", "setting": "Genome polyprotein", "value": "20.1 µM (active)"}]}
{"smiles": "CC(C)(C)c1ccc(C(=O)Nc2cccc([N+](=O)[O-])c2)cc1", "values": [{"measurement": "CC50", "setting": "[13]", "value": "5.38 µM (active)"}, {"measurement": "IC50", "setting": "[10]", "value": "2.13 µM (not active)"}]}
{"smiles": "O=C(CNCc1ccco1)Nc1ccc(N2CCCCCC2)cc1", "values": [{"measurement": "AC50", "setting": "[1]", "value": "0.224 µM (active)"}, {"measurement": "IC50", "setting": "[14]", "value": "84.4 µM (active)"}]}
